Measured values reported in patent US20140206702A1, “IMIDAZOPYRIDINE COMPOUNDS, COMPOSITIONS AND METHODS OF USE” (Genentech, Inc., priority 2012, published 2014).

target: T1, TYK2 kinase domain (Homo sapiens, UniProt P29597); assay: JAK1, JAK2 and TYK2 Inhibition Assay Protocol (Caliper LabChip, isolated kinase domain); format: biochemical; conditions: 1 nM purified TYK2 enzyme, 25 uM ATP, Morrison tight binding model; read-out: Ki values for TYK2 inhibition
T1 construct: The activity of the isolated JAK1, JAK2 or TYK2 kinase domain was measured
T1 sequence (P29597 897-1176 limits assumed): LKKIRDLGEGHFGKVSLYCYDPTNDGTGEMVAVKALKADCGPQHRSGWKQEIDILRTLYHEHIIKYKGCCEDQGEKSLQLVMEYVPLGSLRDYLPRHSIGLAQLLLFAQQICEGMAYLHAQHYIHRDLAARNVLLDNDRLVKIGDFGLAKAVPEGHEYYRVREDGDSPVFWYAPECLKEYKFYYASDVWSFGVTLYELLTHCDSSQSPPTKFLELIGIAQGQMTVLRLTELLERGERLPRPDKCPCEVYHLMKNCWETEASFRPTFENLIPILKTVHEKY
Experimental: The activity of the isolated JAK1, JAK2 or TYK2 kinase domain was measured by monitoring phosphorylation of a peptide derived from JAK3 (Val-Ala-Leu-Val-Asp-Gly-Tyr-Phe-Arg-Leu-Thr-Thr) fluorescently labeled on the N-terminus with 5-carboxyfluorescein using the Caliper LabChip technology (Caliper Life Sciences, Hopkinton, Mass.). To determine the inhibition constants (Ki) of Examples 1-11, compounds were diluted serially in DMSO and added to 50 uL kinase reactions containing 1.5 nM JAK1, 0.2 nM purified JAK2 or 1 nM purified TYK2 enzyme, 100 mM Hepes pH7.2, 0.015% Brij-35, 1.5 uM peptide substrate, 25 uM ATP, 10 mM MgCl2, 4 mM DTT at a final DMSO concentration of 2%. Reactions were incubated at 22° C. in 384-well polypropylene microtiter plates for 30 minutes and then stopped by addition of 25 uL of an EDTA containing solution (100 mM Hepes pH 7.2, 0.015% Brij-35, 150 mM EDTA), resulting in a final EDTA concentration of 50 mM. After termination of the kinase reaction, the proportion of phosphorylated product was determined as a fraction of total peptide substrate using the Caliper LabChip 3000 according to the manufacturer's specifications. Ki values were then determined using the Morrison tight binding model. Morrison, J. F., Biochim. Biophys. Acta. 185:269-296 (1969); William, J. W. and Morrison, J. F., Meth. Enzymol., 63:437-467 (1979).

Compound | Ki [nM]
Cc1cc(Nc2nccc3nc(-c4c(C#N)cccc4C#N)[nH]c23)ncn1 [Example 7, 2-(4-(6-methylpyrimidin-4-ylamino)-3H-imidazo[4,5-c]pyridine-2-yl)isophthalonitrile] | 2.7
N#Cc1cccc(F)c1-c1nc2ccnc(Nc3cc(N)ncn3)c2[nH]1 [Example 1, 2-(4-(6-aminopyrimidin-4-ylamino)-3H-imidazo[4,5-c]pyridin-2-yl)-3-fluorobenzonitrile] | 0.4
N#Cc1cccc(F)c1-c1nc2ccnc(NC(=O)C3CC3)c2[nH]1 [Example 11, N-(2-(2-cyano-6-fluorophenyl)-3H-imidazo[4,5-c]pyridin-4-yl)cyclopropanecarboxamide] | 6

same assay, conditions: Table 1; 1 nM purified TYK2 enzyme, 25 uM ATP, Morrison tight binding model; read-out: TYK2 Ki

Compound | Ki [nM]
Cc1cc(Nc2nccc3nc(-c4c(F)cccc4C#N)[nH]c23)ncn1 [Example 4, 3-fluoro-2-(4-(6-methylpyrimidin-4-ylamino)-3H-imidazo[4,5-c]pyridine-2-yl)benzonitrile] | 1
Cc1cc(Nc2nccc3nc(-c4c(Cl)cccc4C#N)[nH]c23)ncn1 [Example 3, 3-chloro-2-(4-(6-methylpyrimidin-4-ylamino)-3H-imidazo[4,5-c]pyridine-2-yl)benzonitrile] | 0.8
N#Cc1cccc(F)c1-c1nc2ccnc(Nc3cc(CO)ncn3)c2[nH]1 [Example 9, 3-fluoro-2-(4-(6-(hydroxymethyl)pyrimidin-4-ylamino)-3H-imidazo[4,5-c]pyridin-2-yl)benzonitrile] | 2
N#Cc1cccc(Cl)c1-c1nc2ccnc(Nc3cc(N)ncn3)c2[nH]1 [Example 2, 2-(4-(6-aminopyrimidin-4-ylamino)-3H-imidazo[4,5-c]pyridine-2-yl)-3-chlorobenzonitrile] | 0.4
CNc1cc(Nc2nccc3nc(-c4c(Cl)cccc4C#N)[nH]c23)ncn1 [Example 6, 3-chloro-2-(4-(6-(methylamino)pyrimidin-4-ylamino)-3H-imidazo[4,5-c]pyridin-2-yl)benzonitrile] | 0.6
N#Cc1cccc(Cl)c1-c1nc2ccnc(Nc3cc(CO)ncn3)c2[nH]1 [Example 5, 3-chloro-2-(4-(6-(hydroxymethyl)pyrimidin-4-ylamino)-3H-imidazo[4,5-c]pyridin-2-yl)benzonitrile] | 0.8
CNc1cc(Nc2nccc3nc(-c4c(F)cccc4C#N)[nH]c23)ncn1 [Example 8, 3-fluoro-2-(4-(6-(methylamino)pyrimidin-4-ylamino)-3H-imidazo[4,5-c]pyridin-2-yl)benzonitrile] | 0.7
N#Cc1cccc(Cl)c1-c1nc2ccnc(NC(=O)C3CC3)c2[nH]1 [Example 10, N-(2-(2-chloro-6-cyanophenyl)-3H-imidazo[4,5-c]pyridin-4-yl)cyclopropanecarboxamide] | 1.3
